Measurements reported in patent US6472348B1, “Pyridone derivatives and herbicides” (Kumiai Chemical Industry Co., Ltd., priority 1996, dated 2002).

Columns and labels:
Format in all cases: in vivo
[1] = tested on: cotton (Go); experiment: Test Example 4: crop plant selectivity by upland field soil treatment (cotton), phytotoxicity; design: scale not given here; details: dose 6.3 g ai/10 a, evaluated 21st day after application
Protocol: (§1) (Test on Crop Plant Selectivity by Upland Field Soil Treatment)
(§2) In a plastic pot (surface area: 600 cm^2) filled with sand, cotton (Go), Diaitaria ciliaris (Di), green foxtail (Se), pale smartweed (Po), slender amaranth (Am), common lambsquarters (Ch) and China jute (Ab) were sown and covered with soil. […] The plants were then cultured in a green house, and the evaluation of the herbicidal effects and phytotoxicity was conducted on the 21st day after the application in accordance with the standards as identified in Table 47. Symbol—represents “not tested”.

[2] = tested on: pale smartweed (Po); experiment: Test Example 4: crop plant selectivity by upland field soil treatment (cotton), herbicidal effects; design: scale not given here; details: dose 6.3 g ai/10 a, evaluated 21st day after application
Protocol: as §1, §2

[3] = tested on: common lambsquarters (Ch); experiment: as above; design: scale not given here; details: dose 6.3 g ai/10 a, evaluated 21st day after application
Protocol: as §1, §2

[4] = tested on: China jute (Ab); experiment: as above; design: scale not given here; details: dose 6.3 g ai/10 a, evaluated 21st day after application
Protocol: as §1, §2

[5] = tested on: slender amaranth (Am); experiment: as above; design: scale not given here; details: dose 6.3 g ai/10 a, evaluated 21st day after application
Protocol: as §1, §2

[6] = tested on: green foxtail (Se); experiment: as above; design: scale not given here; details: dose 6.3 g ai/10 a, evaluated 21st day after application
Protocol: as §1, §2

[7] = tested on: corn (Ze); experiment: Test Example 7: crop plant selectivity by upland field soil treatment (corn), phytotoxicity; design: scale not given here; details: dose 6.3 g ai/10a, 21st day after application
Protocol: as §1
(§3) In a plastic pot (surface area: 600 cm^2) filled with sand, corn (Ze), green foxtail (Se), pale smartweed (Po), slender amaranth (Am), common lambsquarters (Ch) and China jute (Ab) were sown and covered with soil. […] The plants were then cultured in a green house, and the evaluation of the herbicidal effects and phytotoxicity was conducted on the 21st day after the application in accordance with the standards as identified in Table 47.

[8] = tested on: pale smartweed (Po); experiment: Test Example 7: crop plant selectivity by upland field soil treatment (corn), herbicidal effects; design: scale not given here; details: dose 6.3 g ai/10a, 21st day after application
Protocol: as §1, §3

[9] = tested on: common lambsquarters (Ch); experiment: as above; design: scale not given here; details: dose 6.3 g ai/10a, 21st day after application
Protocol: as §1, §3

[10] = tested on: China jute (Ab); experiment: as above; design: scale not given here; details: dose 6.3 g ai/10a, 21st day after application
Protocol: as §1, §3

[11] = tested on: slender amaranth (Am); experiment: as above; design: scale not given here; details: dose 6.3 g ai/10a, 21st day after application
Protocol: as §1, §3

[12] = tested on: green foxtail (Se); experiment: as above; design: scale not given here; details: dose 6.3 g ai/10a, 21st day after application
Protocol: as §1, §3

[13] = tested on: barnyardgrass (Ec); experiment: Test Example 2: herbicidal effects by upland field soil treatment; details: 100 g of the active ingredient per 10 ares, evaluated on the 21st day after application;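 also: grade of growth control; 5 = at least 90%; 4 = 70 to 90%; 3 = 50 to 70%; 2 = 30 to 50%; 1 = 10 to 30%; 0 = under 10%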
Description: (§4) (Test on Herbicidal Effects by Upland Field Soil Treatment)

[14] = tested on: pale smartweed (Po); experiment: as above; details: 100 g of the active ingredient per 10 ares, evaluated on the 21st day after application
Description: as §4

[15] = tested on: rice flatsedge (Ci); experiment: as above; details: 100 g of the active ingredient per 10 ares, evaluated on the 21st day after application
Description: as §4

[16] = tested on: common lambsquarters (Ch); experiment: as above; details: 100 g of the active ingredient per 10 ares, evaluated on the 21st day after application
Description: as §4

[17] = tested on: Digitaria ciliaris (Di); experiment: as above; details: 100 g of the active ingredient per 10 ares, evaluated on the 21st day after application;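 also: grade of growth control; 5 = at least 90%; 4 = 70 to 90%; 3 = 50 to 70%; 2 = 30 to 50%; 1 = 10 to 30%; 0 = under 10%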
Description: as §4

[18] = tested on: slender amaranth (Am); experiment: as above; details: 100 g of the active ingredient per 10 ares, evaluated on the 21st day after application
Description: as §4

[19] = tested on: barnyardgrass (Ec); experiment: Test Example 1: herbicidal effects by paddy field soil treatment; details: 100 g of the active ingredient per 10 ares, 21st day after the application, index 0-5 of Table 47;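 also: grade of growth control; 5 = at least 90%; 4 = 70 to 90%; 3 = 50 to 70%; 2 = 30 to 50%; 1 = 10 to 30%; 0 = under 10%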
Outline: (§5)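 Greenhouse pot test in flooded paddy soil, dosed at 100 g a.i. per 10 ares; effect scored on day 21.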

[20] = tested on: monochoria (Mo); experiment: as above; details: 100 g of the active ingredient per 10 ares, 21st day after the application, index 0-5 of Table 47;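 also: grade of growth control; 5 = at least 90%; 4 = 70 to 90%; 3 = 50 to 70%; 2 = 30 to 50%; 1 = 10 to 30%; 0 = under 10%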
Outline: as §5

[21] = tested on: bulrush (Sc); experiment: as above; details: 100 g of the active ingredient per 10 ares, 21st day after the application, index 0-5 of Table 47
Outline: as §5

[22] = tested on: barnyardgrass (Ec); experiment: Test Example 3: herbicidal effects by upland field foliage treatment; design: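 grade of growth control; 5 = at least 90%; 4 = 70 to 90%; 3 = 50 to 70%; 2 = 30 to 50%; 1 = 10 to 30%; 0 = under 10%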; details: 100 g of the active ingredient per 10 ares, evaluated on the 14th day after treatment
Outline: (§6)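 Scoring used a standard effect scale on the 14th day post-treatment, with plants held in a greenhouse throughout. Foliar application was made to weeds raised from seed in sand-filled pots for 2 weeks.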

[23] = tested on: pale smartweed (Po); experiment: as above; design: scale not given here; details: 100 g of the active ingredient per 10 ares, evaluated on the 14th day after treatment
Outline: as §6

[24] = tested on: rice flatsedge (Ci); experiment: as above; design: scale not given here; details: 100 g of the active ingredient per 10 ares, evaluated on the 14th day after treatment
Outline: as §6

[25] = tested on: common lambsquarters (Ch); experiment: as above; design: scale not given here; details: 100 g of the active ingredient per 10 ares, evaluated on the 14th day after treatment
Outline: as §6

[26] = tested on: slender amaranth (Am); experiment: as above; design: scale not given here; details: 100 g of the active ingredient per 10 ares, evaluated on the 14th day after treatment
Outline: as §6

[27] = tested on: Diaitaria ciliaris (Di); experiment: as above; design: scale not given here; details: 100 g of the active ingredient per 10 ares, evaluated on the 14th day after treatment
Outline: as §6

With `Cn1c(C(F)(F)F)ccc(-c2cc(OCCF)c(Cl)cc2F)c1=O` [1-172] the “Phytotoxicity Go” value [1] was 1, the “Herbicidal effects Po” value [2] was 5 and the “Herbicidal effects Ch” value [3] was 5. The “Herbicidal effects Ab” value [4] was 5, the “Herbicidal effects Am” value [5] was 5 and the “Herbicidal effects Se” value [6] was 5. The “Phytotoxicity Ze” value [7] was 2, the “Herbicidal effects Po” value [8] was 5 and the “Herbicidal effects Ch” value [9] was 5. The “Herbicidal effects Ab” value [10] was 5, the “Herbicidal effects Am” value [11] was 5 and the “Herbicidal effects Se” value [12] was 5. For the same compound, the “Herbicidal effects Ec” value [13] was 5, the “Herbicidal effects Po” value [14] was 5 and the “Herbicidal effects Ci” value [15] was 5. The “Herbicidal effects Ch” value [16] was 5, the “Herbicidal effects Di” value [17] was 5 and the “Herbicidal effects Am” value [18] was 5. For the same compound, the “Herbicidal effects Ec” value [19] was 5, the “Herbicidal effects Mo” value [20] was 5 and the “Herbicidal effects Sc” value [21] was 5. The “Herbicidal effects Ec” value [22] was 5, the “Herbicidal effects Po” value [23] was 5 and the “Herbicidal effects Ci” value [24] was 5. The “Herbicidal effects Ch” value [25] was 5, the “Herbicidal effects Am” value [26] was 5 and the “Herbicidal effects Di” value [27] was 5.
